We go through two molecules from US9540647B2, “Methods and compositions for the treatment of cancer” (University of South Alabama, priority 2010, dated 2017).

For one assay, the system named is c-jun. Briefly: c-jun and c-fos protein expression and c-jun phosphorylation in A2780-CP70 cells (Western blot). The settings on record: cyclopamine. It is filed as cell-based, human. On the procedure: c-jun protein expression was assessed in cisplatin-treated A2780-CP70 cells using Western blot analysis.
Protein expression of c-fos and phosphorylation of c-jun in cyclopamine-treated A2780-CP70 cells was assessed using Western blot analysis. Protein levels for c-jun, c-fos, phosphorylated c-jun (Ser 63), phosphorylated c-jun (Ser 73), and phosphorylated c-jun (Thr 91, Thr 93) were tested in cytosolic, nuclear, and whole cell fractions at 0 hr, 6 hr, 24 hr, 48 hr, and 72 hr. Internal controls for cytosolic and nuclear fractions included α-tubulin and histone deacetylase 3.
Phosphorylation of c-jun in A2780-CP70 cells transfected with anti-GLI1 shRNA construct was assessed using Western blot analysis. Protein levels for c-jun, phosphorylated c-jun (Ser 63), phosphorylated c-jun (Ser 73), and phosphorylated c-jun (Thr 91, Thr 93) were examined at 0 hr, 6 hr, 24 hr, 48 hr, and 72 hr.
(Immunoblotting shows a protein as a band on a membrane.)

Another assay deals with SHH and IHH. Description: SHH and IHH protein expression in A2780 and A2780-CP70 cells (Western blot). It is filed as cell-based, human. The conditions noted are these: cyclopamine.
For another assay, the system named is c-jun and c-fos mRNA. Briefly: c-jun and c-fos mRNA expression in A2780-CP70 cells (semi-quantitative PCR). The conditions noted are these: 70 μM cyclopamine. It is filed as cell-based, human.
A further assay has as its system pancreatic cancer. The settings on record: blockade of Hedgehog signaling, inhibiting EMT; cited from earlier work.
Another assay relates to OPN. Briefly: OPN expression in osteoblastic cells treated with cyclopamine (qRT-PCR, immunoblot). It is filed as cell-based, human. As for the experimental part: (§1) Quantitative RT-PCR (qRT-PCR)—cDNA was generated using High Capacity Reverse Transcriptase Kit (Applied Biosystems, Foster City, Calif.). Real time PCR was performed using a BioRad iQ5 Real-Time Detection system (Bio-Rad, Hercules, Calif.). All reactions were done in triplicate. OPN transcript levels were normalized to GAPDH levels (dCT) which was used to calculate changes in OPN expression (2-ddCT). […] The primers used included Sppl (OPN) (Mm 00436767_m1); Bglap (osteocalcin) (Mm 01741771_g1); IBSP (Mm 00492555_m1); PTHrP (Mm 00433057_m1); RANKL (Mm 00441906_m1); GAPDH (Mm 99999915_g1).
(Real-time PCR tracks product formation cycle by cycle.)

The test system of assay [1] is MC3T3-E1 pre-osteoblast cells. Briefly: Osteoblast differentiation and mineralization (ALP, Alizarin Red S, BSP, osteocalcin). It is filed as cell-based, murine. On the procedure: The procedure for differentiation of osteoblasts was standardized. MC3T3-E1 cells were cultured in the presence of ascorbic acid and β-glycerophosphate. Mineralization was examined by Alizarin RedS staining (Ueno, A., et al. (2001). Matrix Biol 20, 347-355; Lee, Y. K., et al. (2004). J Biomed Mater Res A 69, 188-195; Duarte, W. R., et al. (2003). S100A4: a novel negative regulator of mineralization and osteoblast differentiation. J Bone Miner Res 18, 493-501). Referring to FIG. 13 and FIG. 14, differentiation was evident by intense red staining in presence of differentiation medium and in differentiation medium containing SHH compared to the control, growth medium. This was also evident in the intensity of absorbance and in the numbers of mineralized nodules formed (counted under the microscope) (FIG. 15).
Induction of osteoblastic and osteoclastic differentiation—In order to test the effect of conditioned medium from the tumor cells on osteoblast differentiation, a double-strength differentiation medium (DM) was formulated for MC3T3 E1 Sc-14 cells. It comprised αMEM, 20% FBS, 50 μg/ml ascorbic acid and 20 mM β-glycerophosphate. Conditioned media and the double-strength DM were mixed in a 1:1 ratio. 1×DM was used as control. Similarly a double-strength differentiation medium was formulated for RAW 264.7 cell lines. It consisted of 20% FBS, 50 ng/ml of RANKL and 20 ng/ml of M-CSF added to the growth medium. Conditioned media from the tumor cells was mixed 1:1 with the double-strength DM. 1×DM was used as control. Osteoblast differentiation was assessed by alkaline phosphatase (ALP) activity assay in the perspective of total phosphatase. The functional assessment of osteoblast mineralization was quantified by staining with Alizarin Red S and scoring the number of mineralized nodules.
as §1

In another assay the test system is OPN promoter. Briefly: OPN promoter reporter activity in hFOB cells. It is filed as cell-based, human. As for the experimental part:
Empty pGL3 vector was used as control. […] Readings were normalized to total protein content. Each parameter was studied in triplicate and the experiment repeated at least 3 times. The data are represented as percent luciferase activity, which was derived as a percent of the relative light units in treated groups compared with the untreated groups.
Empty pGL3 vector was used as control. Different concentrations of SHH ligand were added to the well the next day. Cells were lysed in Reporter Lysis buffer (Promega) 24 hrs post addition of SHH and both β-galactosidase assay and luciferase assays were done following manufacturer's protocol. Readings were normalized to β-galactosidase. Each parameter was studied in triplicate and the experiment repeated at least 3 times.

Entries after “also recorded” stand apart in the source; their conditions may differ.

Regarding `CC1=C2C[C@H]3[C@@H](CC=C4C[C@@H](O)CC[C@@]43C)[C@@H]2CC[C@]12O[C@@H]1C[C@H](C)CN[C@H]1[C@H]2C` [cyclopamine], in the assay with c-jun, the c-fos protein levels result was “increased substantially at 6 hr”; the “phosphorylated c-jun (Ser 73)” value was “gradual increase in levels at 24 hour, 48 hr, and 72 hr”; the “phosphorylated c-jun (Thr 91, Thr 93)” value is on record as “peak levels at 6 hr”. Further, in the assay on c-jun (0-72 hr), the “expression of c-jun protein in nuclear fractions” value was “peaked at 48 hr” and the “phosphorylated c-jun (Ser 63)” value is listed as “no substantial expression was detected over 72 hr”. Also, the c-jun protein levels entry in the assay on c-jun (cytosolic and nuclear fractions) was “increased in cytosolic and nuclear fractions at 48 hr and 72 hr”. In the assay with SHH and IHH (24 hr), the IHH protein levels result is “reduced” and the SHH protein levels result is “reduced”. Further, in the assay with SHH and IHH (48 hr and 72 hr), the IHH protein levels entry is given as “rebounded” and the SHH protein levels entry is listed as “rebounded”. Moreover, the “c-fos mRNA levels, peak over 0 hr” value in the assay with c-jun and c-fos mRNA was determined as 27 fold. The “c-jun mRNA levels, increase” value in the assay on c-jun and c-fos mRNA (6 hr) was 3 fold. For the same molecule, the “c-jun mRNA levels, increase over 0 hr” value in the assay on c-jun and c-fos mRNA (24 hr (peak)) was 13 fold. Also, the “pancreatic cancer invasion and metastasis” value in the assay on pancreatic cancer is “suppressed pancreatic cancer invasion and metastasis”. Besides, the “OPN mRNA levels” value in the assay with OPN (hFOB cells, cyclopamine 5 μM, 10 μM, 20 μM) is listed as “decreases OPN mRNA levels”. For the same molecule, in the assay on OPN (osteoblastic cells in presence of cyclopamine), the “expression of total OPN” value is “decreased”. Besides, the “secreted OPN” value in the assay with OPN (osteoblastic cells, cyclopamine 5, 10 and 20 μM, dose and time dependent) is “decreased”. The “expression of OPN transcript” value in the assay on OPN (osteoblastic cells, cyclopamine (20 μg/ml), real time PCR) is reported as “decreased the expression of OPN transcript”.

On to “SHH: recombinant Sonic Hedgehog ligand (R & D Systems)”, for which the “alkaline phosphatase (ALP) activity, osteoblast differentiation” value in assay [1] (DM supplemented with 100 nM recombinant ligand vs DM alone) was “promotes differentiation; also recorded: significantly greater”. Also, the “mineralized nodules / Alizarin Red staining” value in assay [1] (DM with recombinant ligand vs DM alone, 14 days) was “promote differentiation; also recorded: significantly greater number of mineralized nodules”. Besides, in assay [1] (in presence of SHH, 14 days), the “expression of BSP” value is “significantly elevated” and the expression of osteocalcin result is reported as “significantly elevated”. For the same molecule, the OPN promoter activity result with OPN promoter is given as “activates the OPN promoter; also recorded: upregulation in OPN promoter activity”.
